What all share (format): in vivo, human
Test [1] relates to diarrhoea-predominant IBS. As to the kind of experiment: Example 1: case of a person with severe diarrhoea-predominant IBS treated with balsalazide. From the text:
A person presented with a 7 year history of worsening diarrhoea (watery 6-12/day), urgency, cramping lower abdominal pain and at times faecal incontinence. There was no clear preceding illness nor antibiotic usage. They underwent numerous investigations, beginning with general practitioners ordering stool cultures, blood tests, ultrasound and CT scan examinations. With the passage of time they noticed that some foods caused worsening of symptoms, and was told by a naturopath that they suffered from a ‘food allergy’. […] They consulted a gastroenterologist and underwent endoscopic small bowel biopsy—where coeliac disease was excluded histologically—and colonoscopy with biopsy and further stool cultures. All tests being non-diagnostic, they were told they had severe, diarrhoea-predominant IBS. They continued on the restricted diet, and was referred for counselling and hypnotherapy. Over the next 6-12 months they progressively lost weight with only modest control of their symptoms by the diet. Within 2 weeks of commencing increasing doses of balsalazide from 1.5 gram to 3 grams per day, the stools progressively formed up, with frequency reducing to 1-2 formed stools per day. […] By 6 weeks of treatment they regained 7 kg in weight.

Test [2] concerns diarrhoea predominant Irritable Bowel Syndrome. As to the kind of experiment: Example 3: case of a person with diarrhoea predominant Irritable Bowel Syndrome treated with Salofalk granules, then balsalazide.
The subject of test [3] is diarrhoea-predominant Irritable Bowel Syndrome. Kind of test: Inventor's clinical experience in patients with diarrhoea-predominant IBS. The settings on record: from clinical experience. From the text:
Balsalazide is better than mesalazine (5-ASA) in controlling and may inhibit even more powerfully the symptoms of diarrhoea-predominant IBS and associated conditions enumerated below. This is unexpected. It was not expected that balsalazide would be capable of treating diarrhoea-predominant IBS as it is a very different molecule to the conventional 4ASA and 5ASA compounds. […] It is noted that the side chain together with the 5-ASA potentiates inhibition of gas production, cramping, fluid secretion, and mucus production. It appears the large side chain apart from the salicylate component is effective in treating diarrhoea. In addition, in a subgroup of patients the constipation component of IBS may respond to the same treatment.

The test system of another test is chronic IBS. As to the kind of experiment: Example 2: case of a person with chronic IBS (diarrhoea with intervening constipation, diverticulosis) treated with balsalazide. An excerpt: A person complained of greater than 20 years of diarrhoea with intervening constipation, abdominal bloating, pains, flatulence, and nausea with acid reflux. They had undergone several complete medical investigations including stool tests, blood tests, X-ray imaging and colonoscopic examinations, with negative findings apart from the presence of diverticulosis. Diagnosed as chronic IBS they tried increasing fibre intake, controlling stress, and changing their diet, all to no avail. On commencing balsalazide 1.5 g/day and pushing the dose upwards to 4.5 g/d their diarrhoea, pains, flatulence and nausea abated. At the higher dose the constipation also disappeared.

Where [4] appears, read: balsalazide 1.5 gram to 3 grams per day.

Molecules are shown by their SMILES.

With `O=C(O)CCNC(=O)c1ccc(/N=N/c2ccc(O)c(C(=O)O)c2)cc1` [balsalazide, 5[(1E)-[4-[[(2-carboxyethyl)amino]carbonyl]phenyl]azo]-2-hydroxybenzoic acid], in test [1] (setting [4]), the pain result is on record as “completely abolished” and the urgency result is “disappaeared”. In test [1] (by 6 weeks of treatment), this molecule had a weight regained of 7 kg. Moreover, the “symptom status at follow up” value in test [1] (on balsalazide at 26 weeks) is on record as “virtually completely symptom-free”. In test [1] (within 2 weeks of increasing doses from 1.5 gram to 3 grams per day, baseline watery 6-12/day), the stool frequency is reported as 1-2 formed stools per day. In addition, in test [2] (750 mg twice daily slowly raised to 1.5 grams twice daily), the improvement in symptoms entry is recorded as “dramatic”. Besides, in test [2] (3 grams twice daily), the stool frequency result is reported as “two”, the symptoms entry was “largely disappeared” and the urgency or flatulence entry was “without any urgency or flatulence”. Further, the durability of improvements entry in test [2] (at four months follow up) is on record as “sustained”. For the same molecule, the “suppression of symptoms of diarrhoea-predominant Irritable Bowel Syndrome compared with conventional 4ASA and 5ASA compounds” value in test [3] is recorded as “much more powerful”. In the test on chronic IBS (at 26 weeks), the durability of improvements result was “remain sustained”. Moreover, in the test on chronic IBS (at the higher dose (4.5 g/d)), the constipation result is recorded as “disappeared”. The “diarrhoea, pains, flatulence and nausea” value with chronic IBS (balsalazide 1.5 g/day pushed upwards to 4.5 g/d) was “abated”.
